Reference: US10004701B2, “Methods and compositions for treating infection” (UNIVERSITY OF ROCHESTER, priority 2012, dated 2018)
Structures can show the parent of a compound that is named as a salt.

Tests used:
Assay in all cases: AK assay 384-well format, Prestwick library screening
E. cloacae = assay type: cell-based, Enterobacter cloacae; details: 50 μM final drug concentration; for AK-based Prestwick library screening result, E. cloacae (fold increase in extracellular AK activity): positive cutoff 3-fold increase; for AK-based Prestwick Library Screening Results, E. cloacae (increase in extracellular AK activity): 384-well format
K. pneumoniae = assay type: cell-based, Klebsiella pneumoniae; details: 50 μM final drug concentration; for AK-based Prestwick library screening result, K. pneumoniae (fold increase in extracellular AK activity): positive cutoff 3-fold increase; for AK-based Prestwick Library Screening Results, K. pneumoniae (increase in extracellular AK activity): 384-well format
E. coli = assay type: cell-based, Escherichia coli; details: 50 μM final drug concentration; for AK-based Prestwick Library Screening Results, E. coli (increase in extracellular AK activity): 384-well format
P. aeruginosa = assay type: cell-based, Pseudomonas aeruginosa; details: 50 μM final drug concentration; for AK-based Prestwick library screening result, P. aeruginosa (fold increase in extracellular AK activity): positive cutoff 3-fold increase; for AK-based Prestwick Library Screening Results, P. aeruginosa (increase in extracellular AK activity): 384-well format
E. faecium = assay type: cell-based, Enterococcus faecium; details: 50 μM final drug concentration; for AK-based Prestwick library screening result, E. faecium (fold increase in extracellular AK activity): positive cutoff 3-fold increase; for AK-based Prestwick Library Screening Results, E. faecium (increase in extracellular AK activity): 384-well format
[1] = tested on: S. aureus strain USA300-0114; assay type: cell-based, Staphylococcus aureus; details: 50 μM final drug concentration; for AK-based Prestwick library screening result, S. aureus (fold increase in extracellular AK activity): positive cutoff 3-fold increase; for AK-based Prestwick Library Screening Results, S. aureus (increase in extracellular AK activity): 384-well format
[2] = tested on: A. baumannii strain 98-37-09; assay type: cell-based, Acinetobacter baumannii; details: 50 μM final drug concentration; for AK-based Prestwick library screening result, A. baumannii (fold increase in extracellular AK activity): positive cutoff 3-fold increase; for AK-based Prestwick Library Screening Results, A. baumannii (increase in extracellular AK activity): 384-well format
[3] = planktonic, cutoff for positive-scoring molecules 3-fold increase
[4] = planktonic, cutoff for positive 3-fold increase
[5] = cutoff for positive-scoring molecules 3-fold increase

Molecule: CC(C)(CO)[C@@H](O)C(=O)NCCC(=O)O [calcium salt monohydrate]
- fold induction at 50 µM (E. cloacae; Enterobacter cloacae, 3 h, planktonic, cutoff for positive 3-fold increase, read-out: AK-based Prestwick Library Screening Results, E. cloacae (fold increase in extracellular AK activity)): 1.4
- fold induction at 50 µM (K. pneumoniae; Klebsiella pneumoniae, 3 h, planktonic, cutoff for positive 3-fold increase, read-out: AK-based Prestwick Library Screening Results, K. pneumoniae (fold increase in extracellular AK activity)): 1
- fold induction at 50 µM (E. coli; Escherichia coli, 3 h, planktonic, cutoff for positive 3-fold increase, read-out: AK-based Prestwick Library Screening Results, E. coli (fold increase in extracellular AK activity)): 1.1
- fold induction at 50 µM (P. aeruginosa; Pseudomonas aeruginosa, 3 h, planktonic, cutoff for positive 3-fold increase, read-out: AK-based Prestwick Library Screening Results, P. aeruginosa (fold increase in extracellular AK activity)): 1
- fold induction at 50 µM (E. faecium; Enterococcus faecium, 3 h, planktonic, cutoff for positive 3-fold increase, read-out: AK-based Prestwick Library Screening Results, E. faecium (fold increase in extracellular AK activity)): 1.1
- fold induction at 50 µM ([1]; Staphylococcus aureus, USA300, 3 h, planktonic, cutoff for positive 3-fold increase, read-out: AK-based Prestwick Library Screening Results, S. aureus (fold increase in extracellular AK activity)): 1.1
- fold induction at 50 µM ([2]; Acinetobacter baumannii, 983709, 3 h, planktonic, cutoff for positive 3-fold increase, read-out: AK-based Prestwick Library Screening Results, A. baumannii (fold increase in extracellular AK activity)): 1.1

Molecule: CC(=O)N(CC(C)C(=O)O)c1c(I)cc(I)c(N)c1I (stereo not drawn) [locetamic acid]
- AK-based Prestwick Library Screening Results, E. cloacae (fold increase in extracellular AK activity) (E. cloacae; [3]): 1.4
- AK-based Prestwick Library Screening Results, K. pneumoniae (fold increase in extracellular AK activity) (K. pneumoniae; [3]): 0.8
- AK-based Prestwick Library Screening Results, E. coli (fold increase in extracellular AK activity) (E. coli; planktonic, […]): 0.9
- AK-based Prestwick Library Screening Results, P. aeruginosa (fold increase in extracellular AK activity) (P. aeruginosa; [3]): 0.9
- AK-based Prestwick Library Screening Results, E. faecium (fold increase in extracellular AK activity) (E. faecium; [3]): 0.9
- AK-based Prestwick Library Screening Results, S. aureus (fold increase in extracellular AK activity) [1, 3]: 0.8
- AK-based Prestwick Library Screening Results, A. baumannii (fold increase in extracellular AK activity) [2, 3]: 0.8

Molecule: CNC(=O)c1c(I)c(C(=O)NCC(=O)Nc2c(I)c(C(=O)O)c(I)c(C(=O)NCCO)c2I)c(I)c(N(C)C(C)=O)c1I [loxaglic acid]
- AK-based Prestwick library screening result, E. cloacae (fold increase in extracellular AK activity) (E. cloacae; planktonic E. cloacae): 1.1
- AK-based Prestwick library screening result, K. pneumoniae (fold increase in extracellular AK activity) (K. pneumoniae; planktonic K. pneumoniae): 0.8
- AK-based Prestwick library screening result, E. coli (fold increase in extracellular AK activity) (E. coli; planktonic E. coli, […]): 0.9
- AK-based Prestwick library screening result, P. aeruginosa (fold increase in extracellular AK activity) (P. aeruginosa; planktonic P. aeruginosa): 0.8
- AK-based Prestwick library screening result, E. faecium (fold increase in extracellular AK activity) (E. faecium; planktonic E. faecium): 0.9
- AK-based Prestwick library screening result, S. aureus (fold increase in extracellular AK activity) ([1]; planktonic S. aureus): 0.6
- AK-based Prestwick library screening result, A. baumannii (fold increase in extracellular AK activity) ([2]; planktonic A. baumannii): 0.8

Molecule: (S)-(−)-Atenolol
- AK-based Prestwick Library Screening Results, E. cloacae (fold increase in extracellular AK activity) (E. cloacae; [4]): 1.7
- AK-based Prestwick Library Screening Results, K. pneumoniae (fold increase in extracellular AK activity) (K. pneumoniae; [4]): 0.9
- AK-based Prestwick Library Screening Results, E. coli (fold increase in extracellular AK activity) (E. coli; [4]): 1.2
- AK-based Prestwick Library Screening Results, P. aeruginosa (fold increase in extracellular AK activity) (P. aeruginosa; [4]): 1.1
- AK-based Prestwick Library Screening Results, E. faecium (fold increase in extracellular AK activity) (E. faecium; [4]): 1.0
- AK-based Prestwick Library Screening Results, S. aureus (fold increase in extracellular AK activity) [1, 4]: 1.2
- AK-based Prestwick Library Screening Results, A. baumannii (fold increase in extracellular AK activity) [2, 4]: 1.1

Molecule: (S)-propranolol hydrochloride
- AK-based Prestwick library screening result, E. cloacae (fold increase in extracellular AK activity) (E. cloacae; planktonic E. cloacae): 1.6
- AK-based Prestwick library screening result, K. pneumoniae (fold increase in extracellular AK activity) (K. pneumoniae; planktonic K. pneumoniae): 1.0
- AK-based Prestwick library screening result, E. coli (fold increase in extracellular AK activity) (E. coli; planktonic E. coli, positive cutoff 3-fold increase): 1.2
- AK-based Prestwick library screening result, P. aeruginosa (fold increase in extracellular AK activity) (P. aeruginosa; planktonic P. aeruginosa): 1.1
- AK-based Prestwick library screening result, E. faecium (fold increase in extracellular AK activity) (E. faecium; planktonic E. faecium): 1.1
- AK-based Prestwick library screening result, S. aureus (fold increase in extracellular AK activity) ([1]; planktonic S. aureus): 1.0
- AK-based Prestwick library screening result, A. baumannii (fold increase in extracellular AK activity) ([2]; planktonic A. baumannii): 1.0

Molecule: (−)-MK 801 hydrogen maleate
- AK-based Prestwick Library Screening Results, E. cloacae (fold increase in extracellular AK activity) (E. cloacae; […]): 1.9
- AK-based Prestwick Library Screening Results, K. pneumoniae (fold increase in extracellular AK activity) (K. pneumoniae; […]): 1.0
- AK-based Prestwick Library Screening Results, E. coli (fold increase in extracellular AK activity) (E. coli; […]): 1.2
- AK-based Prestwick Library Screening Results, P. aeruginosa (fold increase in extracellular AK activity) (P. aeruginosa; […]): 1.3
- AK-based Prestwick Library Screening Results, E. faecium (fold increase in extracellular AK activity) (E. faecium; […]): 1.0
- AK-based Prestwick Library Screening Results, S. aureus (fold increase in extracellular AK activity) ([1]; […]): 1.1
- AK-based Prestwick Library Screening Results, A. baumannii (fold increase in extracellular AK activity) ([2]; […]): 1.1

Molecule: Alverine citrate salt
- AK-based Prestwick Library Screening Results, E. cloacae (increase in extracellular AK activity) (E. cloacae; [5]): 0.9
- AK-based Prestwick Library Screening Results, K. pneumoniae (increase in extracellular AK activity) (K. pneumoniae; [5]): 0.7
- AK-based Prestwick Library Screening Results, E. coli (increase in extracellular AK activity) (E. coli; [5]): 0.9
- AK-based Prestwick Library Screening Results, P. aeruginosa (increase in extracellular AK activity) (P. aeruginosa; [5]): 0.8
- AK-based Prestwick Library Screening Results, E. faecium (increase in extracellular AK activity) (E. faecium; [5]): 0.9
- AK-based Prestwick Library Screening Results, S. aureus (increase in extracellular AK activity) [1, 5]: 0.7
- AK-based Prestwick Library Screening Results, A. baumannii (increase in extracellular AK activity) [2, 5]: 0.9

Molecule: Antimycin A
- AK-based Prestwick Library Screening Results: E. cloacae (increase in extracellular AK activity) (E. cloacae; planktonic E. cloacae, 384-well, […]): 1.3
- AK-based Prestwick Library Screening Results: K. pneumoniae (increase in extracellular AK activity) (K. pneumoniae; planktonic K. pneumoniae, 384-well, […]): 1.0
- AK-based Prestwick Library Screening Results: E. coli (increase in extracellular AK activity) (E. coli; planktonic E. coli, 384-well, […]): 1.3
- AK-based Prestwick Library Screening Results: P. aeruginosa (increase in extracellular AK activity) (P. aeruginosa; planktonic P. aeruginosa, 384-well, […]): 1.1
- AK-based Prestwick Library Screening Results: E. faecium (increase in extracellular AK activity) (E. faecium; planktonic E. faecium, 384-well, […]): 1.1
- AK-based Prestwick Library Screening Results: S. aureus (increase in extracellular AK activity) ([1]; planktonic S. aureus, 384-well, […]): 1.0
- AK-based Prestwick Library Screening Results: A. baumannii (increase in extracellular AK activity) ([2]; planktonic A. baumannii, 384-well, […]): 1.4

Molecule: Avermectin B1
- AK-based Prestwick Library Screening Results, E. cloacae (fold increase in extracellular AK activity) (E. cloacae; [3]): 0.9
- AK-based Prestwick Library Screening Results, K. pneumoniae (fold increase in extracellular AK activity) (K. pneumoniae; [3]): 0.6
- AK-based Prestwick Library Screening Results, E. coli (fold increase in extracellular AK activity) (E. coli; [3]): 0.8
- AK-based Prestwick Library Screening Results, P. aeruginosa (fold increase in extracellular AK activity) (P. aeruginosa; [3]): 0.6
- AK-based Prestwick Library Screening Results, E. faecium (fold increase in extracellular AK activity) (E. faecium; [3]): 1.2
- AK-based Prestwick Library Screening Results, S. aureus (fold increase in extracellular AK activity) [1, 3]: 1.7
- AK-based Prestwick Library Screening Results, A. baumannii (fold increase in extracellular AK activity) [2, 3]: 0.8

Molecule: Beta-Escin
- AK-based Prestwick Library Screening Results, E. cloacae (fold increase in extracellular AK activity) (E. cloacae; [3]): 1.4
- AK-based Prestwick Library Screening Results, K. pneumoniae (fold increase in extracellular AK activity) (K. pneumoniae; [3]): 0.7
- AK-based Prestwick Library Screening Results, E. coli (fold increase in extracellular AK activity) (E. coli; [3]): 0.9
- AK-based Prestwick Library Screening Results, P. aeruginosa (fold increase in extracellular AK activity) (P. aeruginosa; [3]): 0.7
- AK-based Prestwick Library Screening Results, E. faecium (fold increase in extracellular AK activity) (E. faecium; [3]): 0.9
- AK-based Prestwick Library Screening Results, S. aureus (fold increase in extracellular AK activity) [1, 3]: 0.8
- AK-based Prestwick Library Screening Results, A. baumannii (fold increase in extracellular AK activity) [2, 3]: 0.8

Molecule: Bromocryptine mesylate
- AK-based Prestwick Library Screening Results, E. cloacae (increase in extracellular AK activity) (E. cloacae; […]): 1.4
- AK-based Prestwick Library Screening Results, K. pneumoniae (increase in extracellular AK activity) (K. pneumoniae; […]): 1.1
- AK-based Prestwick Library Screening Results, E. coli (increase in extracellular AK activity) (E. coli; […]): 1.3
- AK-based Prestwick Library Screening Results, P. aeruginosa (increase in extracellular AK activity) (P. aeruginosa; […]): 1.1
- AK-based Prestwick Library Screening Results, E. faecium (increase in extracellular AK activity) (E. faecium; […]): 0.9
- AK-based Prestwick Library Screening Results, S. aureus (increase in extracellular AK activity) ([1]; […]): 0.6
- AK-based Prestwick Library Screening Results, A. baumannii (increase in extracellular AK activity) ([2]; […]): 1.4

Molecule: Butirosin disulfate salt
- AK-based Prestwick Library Screening Results, E. cloacae (fold increase in extracellular AK activity) (E. cloacae; [3]): 0.4
- AK-based Prestwick Library Screening Results, K. pneumoniae (fold increase in extracellular AK activity) (K. pneumoniae; [3]): 0.5
- AK-based Prestwick Library Screening Results, E. coli (fold increase in extracellular AK activity) (E. coli; planktonic, […]): 0.5
- AK-based Prestwick Library Screening Results, P. aeruginosa (fold increase in extracellular AK activity) (P. aeruginosa; [3]): 0.5
- AK-based Prestwick Library Screening Results, E. faecium (fold increase in extracellular AK activity) (E. faecium; [3]): 0.8
- AK-based Prestwick Library Screening Results, S. aureus (fold increase in extracellular AK activity) [1, 3]: 0.5
- AK-based Prestwick Library Screening Results, A. baumannii (fold increase in extracellular AK activity) [2, 3]: 0.5
